The values below are quoted from earlier work in patent US20070275929A1, “Composition and method for controlling the transmission of noroviruses” (THE DIAL CORPORATION, priority 2006, published 2007).

This data set has as its system norovirus. The settings on record: alcohol alone.

Molecules are shown by their SMILES.

As to `CCO` [alcohol], the “contact time required to reduce norovirus populations by a factor of 3” value is 30 min.
